Data on 84 compounds can be found in PubChem BioAssay AID1249 (Columbia University Molecular Screening Center, 2008).

pIC50: −log10 of the molar value. Calls of active or inactive are those of the source. The rule behind the calls is not given here.

The test system of experiment [1] is cell-based imaging, cytoskeleton assembly phenotype, high content. The experiment in a line: cellular cytoskeleton assembly phenotype modulators – imaging, high-content imaging, retest and dose response, confirmation (AID 1249).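 For inhibition: plate controls were untreated cells for no effect and reference compound treated cells for full effect.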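 Note: compound exposure lasted 24 h before fixation.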
Assay in experiment [2]: as above
As to conditions: cell-based imaging, cytoskeleton assembly phenotype, high content; for cell count: at 10 µM, stronger effect = lower value; for inhibition: at 2 µM, stronger effect = higher value.

The term IC50 denotes the concentration needed to halve the response being measured. As for `CSc1nc(N(C)NC(=O)c2cccc(C)c2)c2ccccc2n1`, in experiment [1], the IC50 is > 10 µM (inactive). The cell count in experiment [2] worked out at 31.6%. What is called pIC50 is the negative decadic logarithm of the IC50, by convention in mol/L. With `CCN(CC)c1ccc(-c2nn3c(-c4ccccc4OC)nnc3s2)cc1`, the pIC50 in experiment [1] was 5.77. Moreover, the cell count in experiment [2] is 25.6%.

Regarding `COC(=O)C1CN(C#N)N(c2ccc(Cl)cc2)C12c1ccccc1-c1ccccc12` (centres undefined), the IC50 in experiment [1] was > 10 µM (inactive). This compound also yielded a cell count in experiment [2] of 85.3%. As to `Cn1cc(/C=N/n2cnc3scc(-c4ccc(Cl)cc4)c3c2=O)c2ccccc21`, the IC50 in experiment [1] is > 10 µM (inactive). In experiment [2], this compound came in with a cell count of 60.8%. The corresponding values for `Cc1ccc2[nH]c(-c3ccccc3)cc(=O)c2c1` are > 10 µM (inactive) and 41.3%. The corresponding values for `O=C(COc1ccccc1-c1ccccc1)N/N=C/c1cccc2ccccc12` are > 10 µM (inactive) and 85%.

In the case of `COc1cc(C2C3=C(Nc4ncnn42)c2ccccc2CC3)cc(OC)c1OC` (centres undefined), in experiment [1], the pIC50 is 5.30. In addition, the cell count in experiment [2] was found to be 43.2%.

In the case of `CC(C)Oc1ccccc1C1CC(=O)Nc2cc3c(cc21)OCCO3` (centres undefined), the IC50 in experiment [1] is > 10 µM (inactive). Also, the cell count in experiment [2] is 88.5%. For the compound `CC1=CC(C)(C)N(S(=O)(=O)c2ccc(C)cc2)c2cc(C)ccc21`, the IC50 in experiment [1] is > 10 µM (inactive). The same compound came in with a cell count in experiment [2] of 90.8%. Consider `O=C1C(=O)c2ccc(-c3ccccc3)cc2-c2ccccc21`, for which, in experiment [1], the IC50 was > 10 µM (inactive). In experiment [2], this compound registered a cell count of 111%.

As usually defined, the inhibition is the drop in the measured response relative to a control, in per cent. As to `O=C(CCSc1nnc2scc(-c3ccccc3)n12)Nc1nc(-c2ccccc2)ns1`, in experiment [2], the inhibition is -3.3% (inactive). Take `Cc1cccc2cc(C#N)c(SCC(=O)N3CC(=O)Nc4ccccc43)nc12`: the cell count in experiment [2] was 67.8%. For `CC(Sc1nc(N)cc(=O)[nH]1)C(=O)NC1CCCCC1` (centres undefined), the inhibition in experiment [2] is 9% (inactive). On the same count and under the same terms, under `Cc1ccc(O)c(NC(=O)C2CC(c3c(F)cccc3Cl)=NO2)c1` (centres undefined) stands -4.4% (inactive); under `COC(=O)CSc1nc2nc(C)c(Br)cc2[nH]1`, 1.5% (inactive).

Take `CCOC(=O)C1=C(c2ccccc2)OC(N)=C(C#N)C1c1ccco1` (centres undefined): in experiment [2], the inhibition is -12.1% (inactive). Still for that read-out and setting: in the case of `O=c1c2ccccc2nc(/C=C/c2ccc([N+](=O)[O-])o2)n1CCCO` it was -3.1% (inactive); in that of `Cc1cccc(NC(=O)CC2SC(=O)N(c3ccccc3)C2=O)c1` (centres undefined), 1.5% (inactive); in that of `Cc1cc(C(=O)CSc2nnc(-c3ccc(F)cc3)o2)c(C)n1CC1COc2ccccc2O1` (centres undefined), -0.5% (inactive). Same read-out and setting: under `CCNc1nc(OC)nc(Oc2ccc(C(=O)OC)cc2)n1` stands -22.8% (inactive).

As to `C=CCn1c(COc2ccc(Cl)cc2)nnc1SCC(=O)N/N=C/c1cccc(O)c1`, the inhibition in experiment [2] is -5.9% (inactive). Turning to `O=C(Nc1nccs1)c1cccc(N2C(=O)c3cccc4c([N+](=O)[O-])ccc(c34)C2=O)c1`, the inhibition in experiment [2] is -8.2% (inactive).

Regarding `O=C(NCCO)C(c1ccccc1)c1ccccc1`, the inhibition in experiment [2] was 3.5% (inactive). Still for that read-out and setting: in the case of `Cc1cc(/C=C2\SC(=Nc3ccc(F)cc3)NC2=O)c(C)n1-c1ccc(S(N)(=O)=O)cc1` it was -17.9% (inactive); in that of `COc1cc(C(=O)Nc2ccc(S(=O)(=O)NC(C)(C)C)cc2)cc(OC)c1OC`, -3.5% (inactive); in that of `OCCNCC(O)Cn1ccc2ccccc21` (centres undefined), -2.9% (inactive). Consider `CC(=O)N1CN2CN(C(C)=O)CC(C(=O)c3ccccc3)(C2)C1`, for which the inhibition in experiment [2] was -10.6% (inactive). For the compound `O=C(c1ccc2c(c1)ncn2C1CCCCC1)N1CCC2(CC1)OCCO2`, in experiment [2], the inhibition was 3% (inactive).

As for `O=C(N/N=C/C=C/c1ccccc1)c1n[nH]c2c1CCC2`, the inhibition in experiment [2] is 2% (inactive).

Turning to `O=C(NC(NC1CCS(=O)(=O)C1)C(=O)c1cccs1)c1ccccc1` (centres undefined), the inhibition in experiment [2] is 6.8% (inactive). The same measure, in the same setting: under `OC(c1ccccn1)c1c[nH]c2ccccc12` (centres undefined) stands 14.9% (inactive). On the same count and under the same terms, in the case of `CCOC1=NC(C(=O)O)c2ccccc2/C(=C(/C)Cl)N1` (centres undefined) it was -4.3% (inactive); in that of `CCC(C)Oc1cccc(OCCCCN2C(=O)NC(C)(C)C2=O)c1` (centres undefined), -13.9% (inactive); in that of `Cc1c(Cl)cccc1-n1ccnc1SCC(=O)O`, 2.2% (inactive). As for `Cc1ccccc1CS(=O)(=O)c1nnc([C@H](Cc2ccccc2)NC(=O)OC(C)(C)C)o1`, in experiment [2], the inhibition was 0.1% (inactive). On to `COC(=O)c1ccc(CSc2nnc(-c3ccncc3)n2Cc2ccccc2)o1`, for which the inhibition in experiment [2] is 1.6% (inactive).

For `CCNC(=O)CCn1nc(-c2ccc(Cl)cc2)c2ccccc2c1=O`, the inhibition in experiment [2] is -0.2% (inactive).

As to `C=CCn1c(SCC(=O)Nc2ccc(C(=O)OCC)cc2)nnc1-c1sc(N)nc1C`, in experiment [2], the inhibition is -0.9% (inactive).

`Cc1cccc(NC(=O)CSc2nc3ccc(NC(=O)CSc4nnnn4-c4ccccc4)cc3s2)c1C`: the inhibition in experiment [2] was 2.9% (inactive). Same read-out and setting: in the case of `Cc1cnc(NC(=O)C2CCCC2)s1` it was -5.2% (inactive); in that of `COc1ccc(OC)c(C2CC(=O)c3c([nH]c(C(=O)OC(C)C)c3C)C2)c1` (centres undefined), 8.4% (inactive); in that of `O=C(NC(Nc1nc2ccc([N+](=O)[O-])cc2s1)(C(F)(F)F)C(F)(F)F)c1ccccc1`, -15.3% (inactive).

For the compound `CCCOC(=O)NC(CC)COC(=O)Nc1cccc(C)c1C` (centres undefined), in experiment [2], the inhibition is -5% (inactive).

`CCCCC(=O)NC(=S)Nc1ccccc1C(=O)Nc1ccccc1`: the inhibition in experiment [2] is 3.2% (inactive). The same measure, in the same setting: under `Cc1ccc(C)c(NC(=S)NC(NC(=O)Cc2cccc3ccccc23)C(Cl)(Cl)Cl)c1` (centres undefined) stands -16% (inactive); under `Nc1ccc2c3c(cccc13)CC2`, -5.4% (inactive).

`COCCCNC(=O)c1cn(C)c(=O)c2cc(OC)c(OC)cc12`: the inhibition in experiment [2] was -7.3% (inactive). Same read-out and setting: in the case of `CC(C)(C)c1ccc(C(=O)N/N=C/c2cccc(Cl)c2)cc1` it was 7.3% (inactive). On the same count and under the same terms, under `CSC1=NCCN1C(=O)Cc1ccc(Cl)cc1` stands 3% (inactive); under `CCc1nc2oc3ccccc3c(=O)c2c(=O)n1CCOC`, 1.7% (inactive). On the same count and under the same terms, under `CCOC(=O)c1cnn(-c2nc(CC)nc3sc4c(c23)CCC4)c1N` stands -4.7% (inactive); under `NC(=O)c1c(NC(=O)Cc2cccs2)sc2c1CCC2`, 6.6% (inactive).

`CCN1CCC2(CC1)C(C#N)=C(N)Oc1c2sc2nc(C)cc(C)c12`: the inhibition in experiment [2] is -0.7% (inactive). Same read-out and setting: under `CCOC(=O)Cc1csc(SCC(=O)/C(C#N)=C(\C)N)n1` stands -9.5% (inactive); under `CCOC(=O)c1cnc(-n2nc(C)cc2C)nc1N1CCOCC1`, 8.4% (inactive); under `NC(=O)COC(=O)CCCc1c[nH]c2ccccc12`, 2.3% (inactive). Same read-out and setting: under `CCOC(=O)Cn1nnnc1CN(CCc1ccccc1)Cc1cc2cc(CC)ccc2[nH]c1=O` stands 1.3% (inactive); under `CC(CCc1ccccc1)NC(=O)c1ccc(Br)o1` (centres undefined), -0.1% (inactive); under `CCCC(C(=O)NC1CCCC1)N(CCCN1CCOCC1)C(=O)c1snc(C(N)=O)c1N` (centres undefined), -2.3% (inactive). As for `CCCc1[nH]nc2c1C(c1cccnc1)C(C#N)=C(N)O2` (centres undefined), in experiment [2], the inhibition is -4.7% (inactive).

Turning to `COc1ccc(Cn2nnnc2C(c2cccs2)N2CCSCC2)cc1` (centres undefined), the inhibition in experiment [2] was -3.9% (inactive). On the same count and under the same terms, under `Cc1ccc(S(=O)(=O)NC(CC(=O)O)c2ccco2)cc1` (centres undefined) stands 8.2% (inactive); under `COC(=O)COc1ccc(=O)n(-c2ccccc2)n1`, -8.8% (inactive).

Take `O=C1CC(c2ccccc2)Cc2nc3ncnn3cc21` (centres undefined): in experiment [2], the inhibition is 2.1% (inactive). Still for that read-out and setting: under `CN(C)c1cccc(C(=O)Nc2ccc(N3CCOCC3)cc2)c1` stands -5.4% (inactive); under `O=C(NCc1cccs1)c1nc2c(nnn2Cc2ccccc2Cl)c(=O)[nH]1`, -3.6% (inactive).

With `CC(C)(CO)NC(=O)CCCOc1ccc(Cl)cc1Cl`, in experiment [2], the inhibition is -0.1% (inactive).

Take `CCCNS(=O)(=O)c1ccc2c(c1)CCCN2C(C)=O`: the inhibition in experiment [2] is -1.4% (inactive).

For `Cc1cccc(OCC(=O)Nc2cc(C)ccc2O)c1`, the inhibition in experiment [2] was -8.8% (inactive). Regarding `O=C(c1ccc(Cl)cc1)N1CCCOC1`, the inhibition in experiment [2] is -2% (inactive).

`CN(CC(=O)NCc1ccncc1)S(=O)(=O)c1ccc(F)cc1`: the inhibition in experiment [2] is 2.2% (inactive). Same read-out and setting: under `Cn1cccc1C(=O)OCC(=O)Nc1cc(C(C)(C)C)nn1-c1ccccc1` stands -17.7% (inactive). Same read-out and setting: in the case of `O=C(O)c1cc2nc3c(c(C(F)(F)F)n2n1)CCc1ccccc1-3` it was 3.7% (inactive); in that of `Cc1cc(C(=O)NN=C2C3CC4CC(C3)CC2C4)c2ccccc2n1`, -3.8% (inactive); in that of `CCOC(=O)c1oc2ccccc2c1NC(=O)Cc1cccs1`, 0.3% (inactive).

Take `CC1(C)CC(=O)c2cc(OCC(=O)NCCCN3CCN(c4ccc(F)cc4)CC3)ccc2O1`: in experiment [2], the inhibition was 8.9% (inactive). Still for that read-out and setting: in the case of `Cc1ccc(S(=O)(=O)Nc2cc(C(=O)NCCN3CCCC3)ccc2N2CCCCC2)cc1` it was -7.7% (inactive).

On to `C=CC(=O)Nc1ccc(Br)cc1`, for which, in experiment [2], the inhibition was -1.2% (inactive). Still for that read-out and setting: under `COc1ccc(-c2cc(C(F)(F)F)nc(S(=O)(=O)CCC(=O)N3CCOCC3)n2)cc1` stands 0% (inactive). The same measure, in the same setting: under `CCCOC(=O)c1ccc(NC(=O)Oc2ccccc2)cc1` stands -5.5% (inactive). Same read-out and setting: in the case of `CCOc1ccc(-n2c(SCC(=O)Nc3ccc(OC)cc3)nc3c(c2=O)SCC3)cc1` it was 7.9% (inactive); in that of `Cc1ccc(-c2noc(CSc3nc(N)cc(N)n3)n2)cc1`, -8.4% (inactive); in that of `COc1cc(NC(=O)CN2C(=O)NC(C)(CC(C)C)C2=O)cc(OC)c1` (centres undefined), 1.2% (inactive). In the case of `Cc1ccccc1NC1=C/C(=N\S(=O)(=O)c2cccs2)c2ccccc2C1=O`, the inhibition in experiment [2] was -3.8% (inactive).
